The series can be described thus: Human HepG2 cell viability assay in 384 well format. The format is toxicity, cell-based. Also noted: dose 125 nL, time 70.5 hour; cytotoxicity at 70.5 h: concentration not given beside the values. The note with it: HepG2 cells, read-out: Inhibition.
`CN(C)c1cc(CNC(=O)c2cccc(F)c2)ccn1`: the cytotoxicity at 70.5 h was 12.7%. For the compound `CC(C(=O)NCCCN1CCN(c2ccccc2)CC1)n1cncn1` (stereo unspecified), the cytotoxicity at 70.5 h is -15.9%. Take `Cc1cc(=O)[nH]c(-n2nc(C)c(CCC(=O)NCc3cccs3)c2C)n1`: the cytotoxicity at 70.5 h is -0.337%.

In the case of `CN(C(=O)Cn1nc(-c2ccccc2)ccc1=O)C1CCS(=O)(=O)C1` (stereo unspecified), the cytotoxicity at 70.5 h is -12.1%. In the case of `CCc1noc(CC)c1CC(=O)N1CCCC(N2CCCCC2)C1` (stereo unspecified) it was -8.14%; in that of `CCN(Cc1noc(CC(C)C)n1)Cc1ccccc1C(=O)O`, -6.37%. Regarding `O=C(c1ccc2[nH]nnc2c1)N1CCCC(n2cccn2)C1` (stereo unspecified), the cytotoxicity at 70.5 h was -5.26%.

On to `Cc1nnc(SCC(=O)NCc2ccc3c(c2)CCC(=O)N3)s1`, for which the cytotoxicity at 70.5 h stood at 2.74%.

With `Cc1cc(N2CCC(O)CC2)nc(C)n1`, the cytotoxicity at 70.5 h was 1.14%. `Cc1nc([C@@H]2C[C@@H]3CCN(C(=O)Cc4cccc(F)c4)C[C@H]3O2)no1`: the cytotoxicity at 70.5 h is -8%. In the case of `Cc1nccn1CCCC(=O)Nc1nc(C(C)C)nn1C` it was 10.2%.

As for `CCCn1nc(-c2nc(Cc3ccc(OC)cc3)no2)ccc1=O`, the cytotoxicity at 70.5 h is -8.43%. As for `Cc1ccc(CN2CCN(CC3CC3)[C@@H]3CS(=O)(=O)C[C@@H]32)cc1C`, the cytotoxicity at 70.5 h is -6.12%. In the case of `CSCCC(NC(=O)c1ccc2ccccc2n1)C(=O)NC1CC1` (stereo unspecified) it was -8.01%. In the case of `COCCNC(=O)c1c(-n2cnnn2)sc2c1CCCC2` it was -4.74%; in that of `O=S(=O)(C1CC1)N1CCO[C@H]2[C@@H](Oc3cccnc3)CC[C@@H]21`, -5.72%. In the case of `O=C(NC1CCc2ccccc2C1)C1CCN(Cc2ccco2)CC1` (stereo unspecified) it was -2.67%; in that of `Cc1cnn(CC(C)NCC(=O)Nc2ccc(Cl)cn2)c1` (stereo unspecified), -2.39%.

Regarding `CN(CC1Cc2ccccc2CN1C)C(=O)CSc1nccn1C` (stereo unspecified), the cytotoxicity at 70.5 h was -8.61%. On to `CC(O)CN1CCN(Cc2csc(-c3ncccn3)n2)CC1` (stereo unspecified), for which the cytotoxicity at 70.5 h was 5.33%.

Regarding `CC(C)c1noc(-c2cccc(OCC(N)=O)c2)n1`, the cytotoxicity at 70.5 h is -5.07%. As for `c1csc(CN2CCC3(CC2)COCCN3CC2CC2)n1`, the cytotoxicity at 70.5 h is -10.1%.

Take `COCCOCC(=O)Nc1ccc(F)cc1C`: the cytotoxicity at 70.5 h was 11.3%. `Cc1cc(CN(C)C(=O)c2ccc(OCC(F)(F)F)nc2)no1`: the cytotoxicity at 70.5 h was found to be 0.93%.

As to `COc1cccc2cc(CNC(=O)N3CCOC(C)(C)C3)oc12`, the cytotoxicity at 70.5 h came out at 14%. In the case of `CCCn1cc(C(=O)N2CCCC(Cc3nccs3)C2)cn1` (stereo unspecified) it was -4.77%; in that of `Cc1cnc(CN2CCCC(c3cc(C)[nH]n3)C2)cn1` (stereo unspecified), 15.7%; in that of `CC(C)N(C)S(=O)(=O)c1ccc2c(c1)CCN(C(=O)c1cccnn1)C2`, -13.5%. In the case of `Cc1cccc(CO[C@@H]2CC[C@H]3[C@H]2OCCN3Cc2ccsc2)n1` it was -12.2%; in that of `O=S(=O)(c1ccccc1)N1CCC2(CCCN2Cc2cccc(F)c2)C1` (stereo unspecified), 6.89%.

Consider `Cc1cnn(CC2CCCN2C(=O)Cc2ccc3c(c2)CCO3)c1` (stereo unspecified), for which the cytotoxicity at 70.5 h was -7.32%. In the case of `Cc1cccc(-c2nnn3c2COC(CNC(=O)N2CCCC2)C3)c1` (stereo unspecified) it was 1.74%; in that of `CCC(C)NC(=O)c1cncc(Br)c1` (stereo unspecified), -2.39%. Regarding `CCN1CCN(S(=O)(=O)N2CCCC2)[C@H]2CS(=O)(=O)C[C@H]21`, the cytotoxicity at 70.5 h was -3.04%.

As for `Cc1n[nH]c(C)c1CCNC(=O)C1CCCN(Cc2ccco2)C1` (stereo unspecified), the cytotoxicity at 70.5 h stood at 9.52%. In the case of `Cn1c(=O)oc2ccc(NC(=O)N3CCOCC3)cc21` it was 31.6%; in that of `CCCN1CCN(C(=O)c2cccnc2)CC1`, -14.6%; in that of `c1ccc(CCCN2CCCC(Nc3cnc4ccccc4n3)C2)cc1` (stereo unspecified), -2.78%. For `CN(Cc1noc(C2CC2)n1)C1CCN(Cc2nnc(C3CC3)o2)C1` (stereo unspecified), the cytotoxicity at 70.5 h is -3.86%. With `Cc1cc(-c2nn(C)c(Cl)c2CN2CC[C@H](CO)[C@@H](O)C2)no1`, the cytotoxicity at 70.5 h amounted to 8.05%. In the case of `c1cnc(N2CCC3(CCN(CC4CC4)CC3)CC2)nc1` it was -15.1%; in that of `COCc1ccccc1CNC(=O)CN1CCC2(CCOC2)C1` (stereo unspecified), 25%.

As for `O=C(CNC(=O)C1CC1)NCC(F)(F)F`, the cytotoxicity at 70.5 h amounted to 1.27%. Consider `CS(=O)(=O)N1CCO[C@@H]2CN(C(=O)c3ccnnc3)C[C@@H]2C1`, for which the cytotoxicity at 70.5 h is -2.42%. In the case of `CN1CCC(c2n[nH]cc2-c2ccnc(N)c2)C1` (stereo unspecified) it was 0.193%. In the case of `COCC1CC2(CCN(C(=O)c3cc(C)oc3C)CC2)CN1C(C)C` (stereo unspecified) it was 0.799%; in that of `CCc1cc(N2CCCNCC2)n2nc(C)c(C)c2n1`, -5.51%. In the case of `O=C(c1cccc2c1OCCO2)N1CCCC(n2cccn2)C1` (stereo unspecified) it was -8.22%. For `CCS(=O)(=O)N1CCC(c2nc3ccc(-c4ccccc4)cn3n2)CC1`, the cytotoxicity at 70.5 h is -5.21%. In the case of `CN(C)C(=O)C1CN(c2ccncn2)CCN(C2CCOCC2)C1` (stereo unspecified) it was 12.4%. In the case of `CC(C)=CCN1CCC(c2nnc(CN3CCN(C)CC3)n2C)CC1` it was 35%.

Turning to `COCCN1CCC(NC(=O)NCC2(c3cccc(F)c3)CC2)C1` (stereo unspecified), the cytotoxicity at 70.5 h is -8.45%. Take `c1cncc(C2COC3(CCN(CC4CC4)CC3)C2)c1` (stereo unspecified): the cytotoxicity at 70.5 h is -0.218%. In the case of `COc1c(CNCc2cccc(CN(C)C)c2)c(C)nn1C` it was -12.7%; in that of `Cc1ccccc1-n1ncc2c(=O)n(CCN3CCCCC3)cnc21`, 21%; in that of `COc1ccccc1OC1CCN(C(=O)c2cnc(C)s2)CC1`, -4.88%. `CC(NC(=O)N1CCN(c2ncccn2)CC1)c1ccc(C#N)cc1` (stereo unspecified): the cytotoxicity at 70.5 h was -4.87%. As to `c1cnc(N2CCO[C@H]3CN(Cc4cc[nH]n4)C[C@H]32)cn1`, the cytotoxicity at 70.5 h is -7.22%. In the case of `Cn1ccnc1CN1CCC2(CC(=O)N(c3cncnc3)C2)C1` (stereo unspecified) it was -14.3%; in that of `CCn1nccc1CN(C)C(=O)Cn1cc2c(n1)c(C)nn2CC`, -1.76%; in that of `O=C(NCC1CCOCC1)[C@H]1C[C@@H]2CCN(Cc3ccccc3)C[C@H]2O1`, -7.17%. `CCN1CCOC(CNCc2ccccc2OCc2cccnc2)C1` (stereo unspecified): the cytotoxicity at 70.5 h was 0.0939%. In the case of `COCc1nc(Cn2ncn3cccc3c2=O)no1` it was -0.912%. In the case of `Cc1cc(C)n(CC2CCCN2CCS(=O)(=O)c2ccccc2)n1` (stereo unspecified) it was -24.2%.

With `Nc1cc(-c2cc(O)cc(C(=O)O)c2)c2cc[nH]c2n1`, the cytotoxicity at 70.5 h was -10.3%. As for `NC(=O)CN1CC2(CCC1=O)CCN(Cc1cc(F)cc(F)c1)CC2`, the cytotoxicity at 70.5 h is -0.945%. In the case of `Cc1cc(C(=O)NCc2ccnc(OCC(F)(F)F)c2)no1` it was -9.23%; in that of `COc1cc(CN2CCCC2)ccc1Oc1ccc2c(c1)CC(CN)O2` (stereo unspecified), 1.9%; in that of `CC(C)NC(=O)CSc1nc2c(cnn2CCO)c(=O)[nH]1`, 26.7%. `CC(C)n1cnnc1CN(C)C(=O)c1ccccc1N1CCOCC1`: the cytotoxicity at 70.5 h stood at 9.11%. In the case of `Cc1ccc(OCCNC(=O)C(C)n2cncn2)cc1` (stereo unspecified) it was 10.5%.
